Patent publication US9023789B2, “Amylin analogs and pharmaceutical compositions thereof” (Novo Nordisk A/S, priority 2012, dated 2015)
Numbered stars: 1 amine (or outer) side, 2 acyl side, 3 side chain; on linkers, the order of the positions; unused ones are H or OH. Bridge positions count the residues as written; N and C are the ends. Side chains are listed from the residue outwards. Peptide text beside a SMILES is read from it. * marks the point of attachment. C20 diacid = O=C(O)CCCCCCCCCCCCCCCCCCC(=O)*; γGlu = O=C(O)[C@H](CCC(=O)[*:2])N[*:1]

How the values were obtained:
[1] = molecular target: T1, human amylin 3(a) receptor (human calcitonin receptor + RAMP-3) in BHK570 cells (Homo sapiens, UniProt O60896+P30988); experiment: ASSAY (II)a functional assay, human amylin receptor (CRE luciferase); type: cell-based
T1 construct: expressed in transfected cells
T1 sequence (O60896 24-148): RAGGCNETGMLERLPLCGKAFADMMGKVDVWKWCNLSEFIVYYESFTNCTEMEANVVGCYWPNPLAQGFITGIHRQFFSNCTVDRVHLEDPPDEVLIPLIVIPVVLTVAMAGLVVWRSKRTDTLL
T1 sequence (P30988 25-474): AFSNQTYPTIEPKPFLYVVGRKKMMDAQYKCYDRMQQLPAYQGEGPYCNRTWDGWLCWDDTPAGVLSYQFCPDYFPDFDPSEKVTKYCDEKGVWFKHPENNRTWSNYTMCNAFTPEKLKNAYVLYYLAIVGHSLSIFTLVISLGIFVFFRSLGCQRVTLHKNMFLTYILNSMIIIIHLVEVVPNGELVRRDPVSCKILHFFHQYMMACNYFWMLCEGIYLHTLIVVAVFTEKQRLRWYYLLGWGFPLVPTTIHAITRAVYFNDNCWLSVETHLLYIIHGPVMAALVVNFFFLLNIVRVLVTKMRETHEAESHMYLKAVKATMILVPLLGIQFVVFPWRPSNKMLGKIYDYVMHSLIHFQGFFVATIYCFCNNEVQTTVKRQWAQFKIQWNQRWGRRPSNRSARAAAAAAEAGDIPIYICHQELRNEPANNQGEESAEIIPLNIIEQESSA
How it was run: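 Cells were seeded and cultured overnight, then incubated with standard or sample for 3 h at 37° C in serum-containing medium at pH 7.4. The medium was then swapped for PBS, LucLite was added for 30 min at room temperature, and luminescence was recorded. Cells were BHK with CRE-luc and calcitonin receptor, ± RAMP-3.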

[2] = system: Sprague Dawley (SD) rats; experiment: ASSAY (I) efficacy testing on appetite (food intake) using an ad libitum fed rat model; type: in vivo; conditions: rat
How it was run: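 Ad libitum fed SD rats (200–250 g) were housed singly on a reversed light/dark cycle and given one 0.01–3 mg/kg dose ip, po or sc just before lights-off, with 5–8 per dose group plus vehicle controls. Food intake was recorded hourly for 7 h, then at 24 h and sometimes 48 h; Grubbs outliers were excluded.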

[3] = ASSAY (III) ThT fibrillation assay for physical stability; type: physicochemical
How it was run: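 Formulations with 1 μM ThT, pH adjusted as required, incubated at 37 °C with 960 rpm orbital shaking; fluorescence (ex 444/em 485 nm) read every 20 min. Fibrillation reported as mean ThT fluorescence ± SD of 4–8 replicates at time points; polypeptide concentration measured by reverse-phase HPLC before and after, post-centrifugation.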

[4] = hCTR funct. EC50 divided by hAmylin-R funct. EC50
[5] = hCTR funct. EC50 over hAmylin-R funct. EC50
[6] = human functional selectivity: hCTR funct. EC50 / hAmylin-R funct. EC50

| Ratio hCT/hAmylin funct. [1, 4] | Ratio hCT/hAmylin funct. [1, 5] | Ratio hCT/hAmylin funct. [1, 6] | ThT pH 4.0 lag time (h) [3] [h] | Structure (SMILES) | Food intake reduction 0-24 h 30 nmol/kg (%) ([2]; 0-24 h) | Food intake reduction 24-48 h 30 nmol/kg (%) ([2]; 24-48 h) | Food intake reduction 0-24 h 3 nmol/kg (%) ([2]; 3 nmol/kg, 0-24 h) | Food intake reduction 24-48 h 3 nmol/kg (%) ([2]; 3 nmol/kg, 24-48 h) |
| --- | --- | --- | --- | --- | --- | --- | --- | --- |
| 65.1 | 65.1 | 65.1 | 10 | CC[C@H](C)[C@H](NC(=O)[C@H](C)NC(=O)CNC(=O)[C@H](Cc1ccccc1)NC(=O)[C@H](CC(N)=O)NC(=O)[C@@H]1CCCN1C(=O)[C@H](CO)NC(=O)[C@H](CO)NC(=O)[C@H](Cc1c[nH]cn1)NC(=O)[C@H](CCCNC(=N)N)NC(=O)[C@H](CC(C)C)NC(=O)[C@H](Cc1ccccc1)NC(=O)[C@H](CC(N)=O)NC(=O)[C@H](C)NC(=O)[C@H](CC(C)C)NC(=O)[C@H](CCCNC(=N)N)NC(=O)[C@H](CCC(N)=O)NC(=O)[C@@H](NC(=O)[C@H](C)NC(=O)[C@@H]1CSSC[C@H](NC(=O)[C@@H](N)CCCCNC(=O)CC[C@H](NC(=O)CCCCCCCCCCCCCCC(=O)O)C(=O)O)C(=O)N[C@@H](CC(N)=O)C(=O)N[C@@H]([C@@H](C)O)C(=O)N[C@@H](C)C(=O)N[C@@H]([C@@H](C)O)C(=O)N1)[C@@H](C)O)C(=O)N1CCC[C@H]1C(=O)N[C@@H](CO)C(=O)N[C@@H](CO)C(=O)N[C@H](C(=O)N[C@@H](CC(N)=O)C(=O)N[C@H](C(=O)NCC(=O)N[C@@H](Cc1c[nH]cn1)C(=O)N[C@@H](CC(N)=O)C(=O)N[C@H](C(=O)N[C@@H](Cc1ccc(O)cc1)C(N)=O)[C@@H](C)O)C(C)C)[C@@H](C)O [Example 111] | 17 | 0 |  |  |
| 5.2 | 5.2 | 5.2 | 35 | CC[C@H](C)[C@H](NC(=O)[C@H](C)NC(=O)CNC(=O)[C@H](Cc1ccccc1)NC(=O)[C@H](CC(N)=O)NC(=O)[C@@H]1CCCN1C(=O)[C@H](CO)NC(=O)[C@H](CO)NC(=O)[C@H](Cc1c[nH]cn1)NC(=O)[C@H](CCCNC(=N)N)NC(=O)[C@H](CC(C)C)NC(=O)[C@H](Cc1ccccc1)NC(=O)[C@H](CCC(=O)O)NC(=O)[C@H](C)NC(=O)[C@H](CC(C)C)NC(=O)[C@H](CCCNC(=N)N)NC(=O)[C@H](CCC(N)=O)NC(=O)[C@@H](NC(=O)[C@H](C)NC(=O)[C@@H]1CSSC[C@H](NC(=O)[C@@H](N)CCCCNC(=O)CC[C@H](NC(=O)CCCCCCCCCCCCCCCCCCC(=O)O)C(=O)O)C(=O)N[C@@H](CC(N)=O)C(=O)N[C@@H]([C@@H](C)O)C(=O)N[C@@H](C)C(=O)N[C@@H]([C@@H](C)O)C(=O)N1)[C@@H](C)O)C(=O)N1CCC[C@H]1C(=O)N[C@@H](CO)C(=O)N[C@@H](CO)C(=O)N[C@H](C(=O)N[C@@H](CC(N)=O)C(=O)N[C@H](C(=O)NCC(=O)N1CCC[C@H]1C(=O)N[C@@H](CCC(=O)O)C(=O)N[C@H](C(=O)N[C@@H](Cc1ccc(O)cc1)C(N)=O)[C@@H](C)O)C(C)C)[C@@H](C)O [Example 109] (H-K([γGlu-C20 diacid])CNTATCATQRLAEFLRHSSPNFGAIPSSTNVGPETY-NH2; disulfide 2-7 (inferred); N-terminus assumed) | 89 | 91 | 57 | 50 |
| 37.3 | 37.3 | 37.3 | 21 | CC[C@H](C)[C@H](NC(=O)[C@H](C)NC(=O)CNC(=O)[C@H](Cc1ccccc1)NC(=O)[C@H](CC(N)=O)NC(=O)[C@@H]1CCCN1C(=O)[C@H](CO)NC(=O)[C@H](CO)NC(=O)[C@H](Cc1c[nH]cn1)NC(=O)[C@H](CCCNC(=N)N)NC(=O)[C@H](CC(C)C)NC(=O)[C@H](Cc1ccccc1)NC(=O)[C@H](CC(N)=O)NC(=O)[C@H](C)NC(=O)[C@H](CC(C)C)NC(=O)[C@H](CCCNC(=N)N)NC(=O)[C@H](CCC(N)=O)NC(=O)[C@@H](NC(=O)[C@H](C)NC(=O)[C@@H]1CSSC[C@H](NC(=O)[C@@H](N)CCCCNC(=O)CC[C@H](NC(=O)CCCCCCCCCCCCCCCCCCC(=O)O)C(=O)O)C(=O)N[C@@H](CC(N)=O)C(=O)N[C@@H]([C@@H](C)O)C(=O)N[C@@H](C)C(=O)N[C@@H]([C@@H](C)O)C(=O)N1)[C@@H](C)O)C(=O)N1CCC[C@H]1C(=O)N[C@@H](CO)C(=O)N[C@@H](CO)C(=O)N[C@H](C(=O)N[C@@H](CC(N)=O)C(=O)N[C@H](C(=O)NCC(=O)N[C@@H](Cc1c[nH]cn1)C(=O)N[C@@H](CC(N)=O)C(=O)N[C@H](C(=O)N[C@@H](Cc1ccc(O)cc1)C(N)=O)[C@@H](C)O)C(C)C)[C@@H](C)O [Example 77] | 40 | 16 |  |  |
